Measured values as given in US5126336A, “Antibiotic C-3 catechol-substituted cephalosporin compounds, compositions and method of use thereof” (Bristol-Myers Squibb Company, priority 1990, dated 1992).
Values after ≈ are worked out from the molar mass of the structure shown. Read-outs that look alike come from different tables or passages of the source.

How the values were obtained:
Assay in all cases: MIC, agar dilution
Assay type in all cases: cell-based
P. aeruginosa A9843A = details: Pseudomonas aeruginosa, A9843A, 18 h, pH 7.2
Method: (§1) Minimum inhibitory concentrations (MICs) of the present series of cephalosporins were determined against 32 strains of test organisms by two-fold serial agar dilution method in Mueller-Hinton agar. Geometric means of MICs were calculated against six groups of the test organisms which are classified as follows and summarized in Table 1.
(§2) In vivo antibacterial activity was determined against three bacterial infections (S. aureus Smith, E. coli Juhl and P. aeruginosa A9843A) by intramuscular administration to mice just after the bacterial challenge. PD50 values are summarized in Table 3 in comparsion with the MIC values against the corresponding organisms.
(§3) Medium; MuellerHinton agar (pH = 7.2)
(§4) Incubation temperature: 32° C., 18 hr
(§5) Inoculum size; 10^6 cells/ml

E. coli Juhl A15119 = details: Escherichia coli, JUHLA15119; E. coli Juhl A15119; Mueller-Hinton agar pH 7.2; 32° C., 18 hr; 10^6 cells/ml; read-out: MIC
Method: as §1, §2, §3, §4, §5

S. aureus Smith = details: Staphylococcus aureus
Method: as §1, §2, §3, §4, §5

E. faecalis A9808 = details: Enterococcus faecalis, Mueller-Hinton agar pH 7.2, 32° C., 18 hr, 10^6 cells/ml
Method: as §1, §3, §4, §5

M. morgani 1510/9 = details: Mueller-Hinton agar pH 7.2, 32° C., 18 hr, 10^6 cells/ml
Method: as §1, §3, §4, §5

X. maltophilia GN 12873 = details: Stenotrophomonas maltophilia, GN12873, Mueller-Hinton agar pH 7.2, 32° C., 18 hr, 10^6 cells/ml
Method: as §1, §3, §4, §5

M. luteus 1001 = details: Micrococcus luteus, Mueller-Hinton agar pH 7.2, 32° C., 18 hr, 10^6 cells/ml
Method: as §1, §3, §4, §5

P. aeruginosa IPM-9 = details: Pseudomonas aeruginosa, IPM9, Mueller-Hinton agar pH 7.2, 32° C., 18 hr, 10^6 cells/ml
Method: as §1, §3, §4, §5

P. cepacia A21213 = details: Burkholderia cepacia, Mueller-Hinton agar pH 7.2, 32° C., 18 hr, 10^6 cells/ml
Method: as §1, §3, §4, §5

P. rettgeri IPM-14 = details: Providencia rettgeri, IPM14, Mueller-Hinton agar pH 7.2, 32° C., 18 hr, 10^6 cells/ml
Method: as §1, §3, §4, §5

P. mirabilis IFO-2849 = details: Proteus mirabilis, IFO2849, Mueller-Hinton agar pH 7.2, 32° C., 18 hr, 10^6 cells/ml
Method: as §1, §3, §4, §5

E. coli 255 = details: Escherichia coli, Mueller-Hinton agar pH 7.2, 32° C., 18 hr, 10^6 cells/ml
Method: as §1, §3, §4, §5

P. cepacia No. 651 = details: Burkholderia cepacia, Mueller-Hinton agar pH 7.2, 32° C., 18 hr, 10^6 cells/ml
Method: as §1, §3, §4, §5

P. aeruginosa KKA 19 = details: Pseudomonas aeruginosa, KKA19, Mueller-Hinton agar pH 7.2, 32° C., 18 hr, 10^6 cells/ml
Method: as §1, §3, §4, §5

E. faecium A24817 = details: Enterococcus faecium, Mueller-Hinton agar pH 7.2, 32° C., 18 hr, 10^6 cells/ml
Method: as §1, §3, §4, §5

S. marcescens IPM-15 = details: Serratia marcescens, IPM15, Mueller-Hinton agar pH 7.2, 32° C., 18 hr, 10^6 cells/ml
Method: as §1, §3, §4, §5

S. aureus 209P = details: Staphylococcus aureus; S. aureus 209P; Mueller-Hinton agar pH 7.2; 32° C., 18 hr; 10^6 cells/ml; read-out: MIC
Method: as §1, §3, §4, §5

S. aureus IPM-24 (MRSA) = details: Staphylococcus aureus, Mueller-Hinton agar pH 7.2, 32° C., 18 hr, 10^6 cells/ml
Method: as §1, §3, §4, §5

S. epidermidis 11-1230 = details: Staphylococcus epidermidis, 111230, Mueller-Hinton agar pH 7.2, 32° C., 18 hr, 10^6 cells/ml
Method: as §1, §3, §4, §5

M. morgani 1510 = details: Mueller-Hinton agar pH 7.2, 32° C., 18 hr, 10^6 cells/ml
Method: as §1, §3, §4, §5

K. pneumoniae PCI 602 = details: Klebsiella pneumoniae, PCI602, Mueller-Hinton agar pH 7.2, 32° C., 18 hr, 10^6 cells/ml
Method: as §1, §3, §4, §5

S. marcescens IPM-16 = details: Serratia marcescens, IPM16, Mueller-Hinton agar pH 7.2, 32° C., 18 hr, 10^6 cells/ml
Method: as §1, §3, §4, §5

B. subtilis PCI 219 = details: Bacillus subtilis, PCI219, Mueller-Hinton agar pH 7.2, 32° C., 18 hr, 10^6 cells/ml
Method: as §1, §3, §4, §5

C. freundii GN 7391 = details: Citrobacter freundii, GN7391, Mueller-Hinton agar pH 7.2, 32° C., 18 hr, 10^6 cells/ml
Method: as §1, §3, §4, §5

E. cloacae IPM-12 = details: Enterobacter cloacae, IPM12, Mueller-Hinton agar pH 7.2, 32° C., 18 hr, 10^6 cells/ml
Method: as §1, §3, §4, §5

P. aeruginosa IPM-8 = details: Pseudomonas aeruginosa, IPM8, Mueller-Hinton agar pH 7.2, 32° C., 18 hr, 10^6 cells/ml
Method: as §1, §3, §4, §5

C. terrigena IFO 12685 = details: Mueller-Hinton agar pH 7.2, 32° C., 18 hr, 10^6 cells/ml
Method: as §1, §3, §4, §5

X. maltophilia No. 661 = details: Stenotrophomonas maltophilia, Mueller-Hinton agar pH 7.2, 32° C., 18 hr, 10^6 cells/ml
Method: as §1, §3, §4, §5

S. aureus 4-1015 (MRSA) = details: Staphylococcus aureus, Mueller-Hinton agar pH 7.2, 32° C., 18 hr, 10^6 cells/ml
Method: as §1, §3, §4, §5

P. vulgaris IPM-13 = details: Proteus vulgaris, IPM13, Mueller-Hinton agar pH 7.2, 32° C., 18 hr, 10^6 cells/ml
Method: as §1, §3, §4, §5

P. aeruginosa A20599 = details: Pseudomonas aeruginosa, Mueller-Hinton agar pH 7.2, 32° C., 18 hr, 10^6 cells/ml
Method: as §1, §3, §4, §5

[1] = S. aureus Smith, Mueller-Hinton agar pH 7.2, 32° C., 18 hr, 10^6 cells/ml, read-out: MIC

Structure (SMILES)	MIC (P. aeruginosa A9843A) [µg/mL]	MIC (E. coli Juhl A15119) [µg/mL]	MIC (E. faecalis A9808) [µg/mL]	MIC (M. morgani 1510/9) [µg/mL]	MIC (X. maltophilia GN 12873) [µg/mL]	MIC (M. luteus 1001) [µg/mL]	MIC (P. aeruginosa IPM-9) [µg/mL]	MIC (P. cepacia A21213) [µg/mL]	MIC (P. rettgeri IPM-14) [µg/mL]	MIC (P. mirabilis IFO-2849) [µg/mL]	MIC (E. coli 255) [µg/mL]	MIC (P. cepacia No. 651) [µg/mL]	MIC (P. aeruginosa KKA 19) [µg/mL]	MIC (E. faecium A24817) [µg/mL]	MIC (S. marcescens IPM-15) [µg/mL]	MIC (S. aureus 209P) [µg/mL]	MIC (S. aureus IPM-24 (MRSA)) [µg/mL]	MIC (S. epidermidis 11-1230) [µg/mL]	MIC (M. morgani 1510) [µg/mL]	MIC (K. pneumoniae PCI 602) [µg/mL]	other results
CC(C)(O/N=C(\C(=O)NC1C(=O)N2C(C(=O)O)=C(/C=C/Cn3cnc4cc(O)c(O)cc43)CS[C@H]12)c1csc(N)n1)C(=O)O (stereo partly drawn) [Io, 7-[(Z)-2-(2-Aminothiazol-4-yl)-2-(1-methyl-1-carboxyethoxy-imino)acetamido]-3-[(E)-3-(5,6-dihydroxybenzimidazol-1-yl)-1-propen-1-yl]-3-cephem-4-carboxylic acid]	0.4 (≈ 0.621 µM)	1.6 (≈ 2.49 µM)	> 100	0.8 (≈ 1.24 µM)	3.1 (≈ 4.82 µM)	6.3 (≈ 9.79 µM)	25 (≈ 38.8 µM)	6.3 (≈ 9.79 µM)	1.6 (≈ 2.49 µM)	0.2 (≈ 0.311 µM)	0.2 (≈ 0.311 µM)	6.3 (≈ 9.79 µM)	0.8 (≈ 1.24 µM)	> 100	> 100	12.5 (≈ 19.4 µM)	100 (≈ 155 µM)	50 (≈ 77.7 µM)	3.1 (≈ 4.82 µM)	0.05 (≈ 0.0777 µM)	MIC (S. aureus Smith; [1]): 25 µg/mL (≈ 38.8 µM); MIC (S. marcescens IPM-16): 25 µg/mL (≈ 38.8 µM); MIC (B. subtilis PCI 219): 12.5 µg/mL (≈ 19.4 µM); MIC (C. freundii GN 7391): 25 µg/mL (≈ 38.8 µM); MIC (E. cloacae IPM-12): 12.5 µg/mL (≈ 19.4 µM); MIC (P. aeruginosa IPM-8): 0.4 µg/mL (≈ 0.621 µM); MIC (C. terrigena IFO 12685): 3.1 µg/mL (≈ 4.82 µM); MIC (X. maltophilia No. 661): 1.6 µg/mL (≈ 2.49 µM); MIC (S. aureus 4-1015 (MRSA)): > 100 µg/mL; MIC (P. vulgaris IPM-13): 50 µg/mL (≈ 77.7 µM); MIC (P. aeruginosa A20599): 0.8 µg/mL (≈ 1.24 µM)
C[n+]1cn(C/C=C/C2=C(C(=O)[O-])N3C(=O)C(NC(=O)/C(=N\OC(C)(C)C(=O)O)c4csc(N)n4)C3SC2)c2cc(O)c(O)cc21 (stereo not drawn) [Ip, 7-[(Z)-2-(2-Aminothiazol-4-yl)-2-(1-methyl-1-carboxyethoxy-imino)acetamido]-3-[(E)-3-(5,6-dihydroxy-3-methylbenzimi-dazol-3-io-1-yl)-1-propen-1-yl]-3-cephem-4-carboxylate]	0.1 (≈ 0.152 µM)	0.2 (≈ 0.304 µM)	> 100	0.1 (≈ 0.152 µM)	1.6 (≈ 2.43 µM)	3.1 (≈ 4.71 µM)	12.5 (≈ 19 µM)	1.6 (≈ 2.43 µM)	0.2 (≈ 0.304 µM)	0.05 (≈ 0.076 µM)	0.05 (≈ 0.076 µM)	3.1 (≈ 4.71 µM)	0.2 (≈ 0.304 µM)	> 100	> 100	25 (≈ 38 µM)	> 100	25 (≈ 38 µM)	1.6 (≈ 2.43 µM)	0.013 (≈ 0.0198 µM)	MIC (S. aureus Smith; 18 h, pH 7.2): 100 µg/mL (≈ 152 µM); MIC (S. marcescens IPM-16): 3.1 µg/mL (≈ 4.71 µM); MIC (B. subtilis PCI 219): 12.5 µg/mL (≈ 19 µM); MIC (C. freundii GN 7391): 12.5 µg/mL (≈ 19 µM); MIC (E. cloacae IPM-12): 3.1 µg/mL (≈ 4.71 µM); MIC (P. aeruginosa IPM-8): 0.1 µg/mL (≈ 0.152 µM); MIC (C. terrigena IFO 12685): 1.6 µg/mL (≈ 2.43 µM); MIC (X. maltophilia No. 661): 0.8 µg/mL (≈ 1.22 µM); MIC (S. aureus 4-1015 (MRSA)): > 100 µg/mL; MIC (P. vulgaris IPM-13): 12.5 µg/mL (≈ 19 µM); MIC (P. aeruginosa A20599): 0.2 µg/mL (≈ 0.304 µM)
CO/N=C(\C(=O)NC1C(=O)N2C(C(=O)O)=C(/C=C/Cn3cnc4cc(O)c(O)cc43)CS[C@H]12)c1csc(N)n1 (stereo partly drawn) [Iu, 7-[(Z)-2-(2-aminothiazol-4-yl)-2-methoxyiminoacetamido]-3-[(E)-3-(5,6-dihydroxybenzimidazol-1-yl)-1-propen-1-yl]-3-cephem-4-carboxylic acid]	6.3 (≈ 11 µM)	0.2 (≈ 0.35 µM)	100 (≈ 175 µM)	0.4 (≈ 0.7 µM)	> 100	0.8 (≈ 1.4 µM)	100 (≈ 175 µM)	> 100	0.8 (≈ 1.4 µM)	0.1 (≈ 0.175 µM)	0.8 (≈ 1.4 µM)	> 100	100 (≈ 175 µM)	> 100	> 100	6.3 (≈ 11 µM)	> 100	50 (≈ 87.5 µM)	25 (≈ 43.7 µM)	0.05 (≈ 0.0875 µM)	MIC (S. aureus Smith; [1]): 6.3 µg/mL (≈ 11 µM); MIC (S. marcescens IPM-16): > 100 µg/mL; MIC (B. subtilis PCI 219): 3.1 µg/mL (≈ 5.42 µM); MIC (C. freundii GN 7391): 100 µg/mL (≈ 175 µM); MIC (E. cloacae IPM-12): > 100 µg/mL; MIC (P. aeruginosa IPM-8): 25 µg/mL (≈ 43.7 µM); MIC (C. terrigena IFO 12685): 1.6 µg/mL (≈ 2.8 µM); MIC (X. maltophilia No. 661): > 100 µg/mL; MIC (S. aureus 4-1015 (MRSA)): 50 µg/mL (≈ 87.5 µM); MIC (P. vulgaris IPM-13): > 100 µg/mL; MIC (P. aeruginosa A20599): 6.3 µg/mL (≈ 11 µM)
